Assay results: patent publication US11793824B2, “Administration of nicotinamide mononucleotide in the treatment of disease” (Washington University, priority 2013, dated 2023)
“Also recorded” adds a separate entry of the source.

What was measured:
Nampt = target: T1, Nampt (Mus musculus, UniProt Q99KQ4); test: NAD+ levels in neurospheres treated with FK866 with or without NMN; assay type: cell-based
T1 construct: endogenous in cells; host or cells: primary neurospheres (NSPCs) from hippocampi of postnatal mice
T1 sequence (Q99KQ4 whole entry): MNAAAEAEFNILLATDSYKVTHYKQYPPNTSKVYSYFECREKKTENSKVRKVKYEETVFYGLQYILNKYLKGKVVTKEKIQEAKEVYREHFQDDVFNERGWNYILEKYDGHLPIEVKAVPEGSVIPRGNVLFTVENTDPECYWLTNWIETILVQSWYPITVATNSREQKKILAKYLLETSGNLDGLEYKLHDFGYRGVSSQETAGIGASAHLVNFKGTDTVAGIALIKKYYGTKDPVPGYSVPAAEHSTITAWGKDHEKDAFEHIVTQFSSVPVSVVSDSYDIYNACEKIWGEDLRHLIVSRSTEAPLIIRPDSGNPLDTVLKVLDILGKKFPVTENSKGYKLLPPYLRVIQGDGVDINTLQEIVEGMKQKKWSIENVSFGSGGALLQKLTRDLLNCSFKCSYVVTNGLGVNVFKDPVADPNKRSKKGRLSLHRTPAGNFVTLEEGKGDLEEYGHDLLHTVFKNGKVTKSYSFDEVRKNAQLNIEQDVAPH
Description: NAD+ levels were determined using an HPLC system (Shimadzu) with a Supelco LC-18-T column (15 cm×4.6 cm; Sigma), as described previously (Yoshino et al, 2011).
FK866 (Hasmann & Schemainda, 2003) (Sigma F8557), EX527 (Peck et al, 2010) (Cayman Chemical 10009798), and AGK2 (Outeiro et al, 2007) (Sigma A8231) were dissolved in DMSO and used to inhibit Nampt, Sirt1, and Sirt2 respectively.
Neurosphere cultures and culture media were prepared as described by Dasgupta & Gutmann, 2005 and Lu & Ramanan, 2012 with the following minor modifications. Briefly, postnatal hippocampi were dissected in HibernateA (Invitrogen, A12475-01) and trypsinized at 37° C. for 7 m. Cells were mechanically dissociated by pipetting and pelleted by centrifugation (1700 rpm, 7 min). Dissociation medium (0.1% sodium bicarbonate, 15 mM HEPES, 0.5% glucose in HBSS) was used to wash the cells before they were resuspended in growth medium. Growth medium consisted of DMEM:F12 (1:1, Invitrogen 11966-025 and 21700-075, respectively), B27 (Invitrogen, 17504-044), N2 (Invitrogen, 17502-048), Pen/Strep (Invitrogen), epidermal growth factor (EGF, 20 ng/ml, Sigma, E4127), fibroblast growth factor (FGF, 10 ng/mL, R&D Systems, 233-fb), and heparin (Sigma). Cultures were maintained at 37° C. with 5% CO2, and passaged twice before use in experiments. […]

661W cone PR cell line = test: 661W cone PR cell line: cell death and intracellular NAD under FK866 with or without NMN; assay type: cell-based, mouse
Excerpt: The present inventors assessed the physiological importance of NAMPT-mediated NAD biosynthesis in the retina by generating rod cell- and cone cell-specific NAMPT knockout mice. […] Both a and b wave ERG responses were completely depressed as characterized by a total lack of response to all stimuli. […] NMN administration is an effective intervention to treat/prevent retinal degeneration.
The inventors used a 661W cone PR cell line and treated the cells with the specific pharmacological NAMPT inhibitor FK866 (200 nM). […] Cell death progresses dramatically over the next 20 hours.

661W cone cells = test: 661W cone cells: oxygen consumption rate measurement assay; assay type: cell-based, mouse
Description: There was an abundance of degenerative vacuoles with ingested organelles including mitochondria in rod-CKO mice with no such structures identified in littermate wild type controls. At 3 weeks of age, subtle changes in inner segments could be identified in rod-CKO mice although they were not as dramatic as those seen by 4 weeks (FIG. 35). […] The inventors treated 661W cone cells with NAMPT inhibitor FK866 (200 nM). In the oxygen consumption rate measurement assay, multiple aspects of mitochondrial function were analyzed.

[1] = Age-associated body weight increase, 12 month-long NMN administration; assay type: in vivo, mouse; settings: 12 months
Description: (§1) A 12 month-long NMN administration study using wild-type mice under a regular chow-fed condition was conducted. NMN was administered through drinking water, and two doses of NMN, 100 and 300 mg/kg body weight/day, were tested. […] To assess beneficial and possible adverse effects of NMN, a variety of physiological parameters were periodically monitored, including body weight, body temperature, food and water intake, fed and fasted blood glucose levels, fed and fasted plasma lipid panels, and glucose and insulin tolerance, in NMN-administered and control mice. Blood chemistry, blood cell counts, urine strip test, and other physiological tests including physical activity test were also checked.
In these experiments, NMN was administered to mice at a dosage rate of 100 mg/kg per day or 300 mg/kg per day. […] The results were analyzed with two-way RANOVA and one-way RANOVA with the unweighted linear term. All values are presented as mean±SEM (n=15, 14, and 14 for control, 100, and 300 mg/kg NMN-administered groups).

[2] = Oxygen consumption, energy expenditure, respiratory quotient (Oxymax Lab Animal Monitoring System); assay type: in vivo, mouse; settings: 100 mg/kg and 300 mg/kg groups, 12 month time point
Description: as §1
In this long-term NMN administration study (See Methods; Administration of NMN through Drinking Water and Determination of NMN Stability and Toxicity), the inventors measured oxygen consumption, energy expenditure, and respiratory quotient for control, mice administered 100 mg/kg NMN per day and mice administered 300 mg/kg NMN per day at the 12 month time point by using the Oxymax Lab Animal Monitoring System (Columbus Instruments, Columbus, OH).

[3] = Electroretinography (ERG) of aged mice; assay type: in vivo, mouse
Description: as §1
In the long-term NMN administration study (See Methods; Administration of NMN through Drinking Water and Determination of NMN Stability and Toxicity), retinal function was evaluated by fundus biomicroscopy and electroretinography (ERG). FIG. 11 illustrates fundus biomicroscopy images from control and NMN-administered mice. For each group, five mice were examined, and two representative images are shown.
FIG. 12A-C illustrates electroretinograms from control and NMN-administered mice. Amplitudes of scotopic a and b (FIG. 12A, FIG. 12B) and photopic b (FIG. 12C) waves over each stimulus range are shown. […] The data were analyzed with the two-way repeated ANOVA. […]

| Structure (SMILES) | NAD+ levels in neurospheres (Nampt; FK866 10 nM, 48 hours) | intracellular NAD levels (661W cone PR cell line; FK866 200 nM) | cell death of 661W cells (661W cone PR cell line; FK866 200 nM, after 4 hours of treatment) | maximal respiration (661W cone cells; FK866 200 nM) | average percent body weight gain suppression normalized to control mice ([1]; 100 mg/kg group) | average percent body weight reduction normalized to control mice ([1]; 100 mg/kg group) | average percent body weight gain suppression normalized to control mice ([1]; 300 mg/kg group) | average percent body weight reduction normalized to control mice ([1]; 300 mg/kg group) | oxygen consumption [2] | respiratory quotient [2] | energy expenditure ([2]; through 24 hours) | scotopic a wave amplitudes ([3]; at 0 and 5 db (300 mg/kg), 5 db (100 mg/kg), aged mice) | photopic b wave ([3]; entire range of stimulus, 100 and 300 mg/kg groups) | rescue of FK866-induced decrease of NAD+ levels (Nampt; concurrent NMN 100 μM with FK866 10 nM) | NAD levels under FK866 (661W cone PR cell line; NMN 100 μM with FK866) | rescue from FK866-mediated cell death (661W cone PR cell line; NMN 100 μM with FK866) | effects of FK866 on mitochondrial function (661W cone cells; NMN treatment with FK866) |
| --- | --- | --- | --- | --- | --- | --- | --- | --- | --- | --- | --- | --- | --- | --- | --- | --- | --- |
| O=C(/C=C/c1cccnc1)NCCCCC1CCN(C(=O)c2ccccc2)CC1 [FK866] | 4 % of controls | decrease in intracellular NAD levels | significant cell death; also recorded: apoptotic cell death | significantly reduced | – | – | – | – | – | – | – | – | – | – | – | – | – |
| NC(=O)c1ccc[n+]([C@@H]2O[C@H](COP(=O)([O-])O)[C@@H](O)[C@H]2O)c1 [NMN, nicotinamide mononucleotide] | – | – | – | – | 12% | 4% | 30% | 9% | significantly increased | significantly decreased | significant increases | significantly higher amplitudes | trend of improvement | completely rescued | restore NAD to normal levels | completely rescue; also recorded: successfully rescued | completely reverse |
